The subject of the first experiment is rabbit skeletal myofibrils (fast skeletal myofibrils). Put plainly: Activation of fast skeletal myofibrils (PUMA assay, PK/LDH-coupled ATPase at pCa25). The experiment is classed as biochemical. The settings on record: AC1.4 determined according to the procedure of Example 39; reported as class symbols. The method, boiled down:
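Detergent-washed rabbit psoas myofibrils (~90% fast fibres, calcium-regulated) assayed at calcium giving 25% of maximal ATPase rate (pCa25). ADP turnover coupled via pyruvate kinase/lactate dehydrogenase to NADH oxidation, read at 340 nm. Buffer 12 mM PIPES, 2 mM MgCl2, 1 mM DTT, pH 6.8; AC1.4 values derived.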
For the compound `COc1cccc(C2(CNc3ccc(-c4ccc5cn[nH]c5c4)nn3)CCC2)n1` [(6-(1H-indazol-6-yl)pyridazin-3-yl){[(6-methoxy(2-pyridyl))cyclobutyl]methyl}amine], the “Mean AC1.4” value is on record as “A (A=<1 uM)”. Regarding `CC(C)(CNc1ccc(-c2ccccn2)nn1)c1ccc(F)cc1` [[2-(4-fluorophenyl)-2-methylpropyl](6-(2-pyridyl)pyridazin-3-yl)amine], the “Mean AC1.4” value is “B (B=1-10 uM)”. Consider `Cc1ccccc1C(C)(C)CNc1ccc(-c2ccc3[nH]nc(N)c3c2)nn1` [[6-(3-amino(1H-indazol-5-yl))pyridazin-3-yl][2-methyl-2-(2-methylphenyl)propyl]amine], for which the “Mean AC1.4” value is reported as “A (A=<1 uM)”. Consider `CC(C)(CNc1ccc(C(=O)NC(CCC(N)=O)C(N)=O)nn1)c1ccc(F)cc1` (stereo not drawn) [N-(1,3-dicarbamoylpropyl)(6-{[2-(4-fluorophenyl)-2-methylpropyl]amino}pyridazin-3-yl)carboxamide], for which the “Mean AC1.4” value was “D (D=>20 uM)”. Consider `CC(C)(CNc1ccc(-c2cc(F)cc(C(N)=O)c2)nn1)c1ccc(F)cc1` [3-fluoro-5-(6-{[2-(4-fluorophenyl)-2-methylpropyl]amino}pyridazin-3-yl)benzamide], for which the “Mean AC1.4” value is given as “B (B=1-10 uM)”.

Regarding `CC(=O)Nc1n[nH]c2ccc(-c3ccc(NCC(C)(C)c4ccc(F)cc4)nn3)cc12` [N-[5-(6-{[2-(4-fluorophenyl)-2-methylpropyl]amino}pyridazin-3-yl)-1H-indazol-3-yl]acetamide], the “Mean AC1.4” value was “A (A=<1 uM)”. In the case of `CC(C)(CNc1ccc(-c2ccc3c(=O)[nH]c(N)nc3c2)nn1)c1ccc(F)cc1`, the “Mean AC1.4” value was “C (C=10-20 uM)”. In the case of `NC(=O)c1cccc(-c2ccc(NCCc3cc(F)cc(F)c3)nn2)c1`, the “Mean AC1.4” value is “D (D=>20 uM)”. Same read-out and setting: then `Cc1nc2ccc(-c3ccc(NCC(C)(C)c4ccc(F)cc4)nn3)cc2o1` [[2-(4-fluorophenyl)-2-methylpropyl][6-(2-methylbenzoxazol-6-yl)pyridazin-3-yl]amine], with “B (B=1-10 uM)”; and `CC(=O)c1ccc(NCC(C)(C)c2ccc(F)cc2)nn1` [1-(6-{[2-(4-fluorophenyl)-2-methylpropyl]amino}pyridazin-3-yl)ethan-1-one], with “D (D=>20 uM)”. Turning to `Cc1cc(-c2cccc(C#N)c2)nnc1NCC(C)(C)c1ccc(F)cc1` [3-(6-{[2-(4-fluorophenyl)-2-methylpropyl]amino}-5-methylpyridazin-3-yl)benzenecarbonitrile], the “Mean AC1.4” value was “C (C=10-20 uM)”. Take `CC(C)(CNc1ccc(-c2ccc3[nH]c(O)nc3c2)nn1)c1ncccc1F` [5-(6-{[2-(3-fluoro(2-pyridyl))-2-methylpropyl]amino}pyridazin-3-yl)benzimidazol-2-ol]: the “Mean AC1.4” value is “A (A=<1 uM)”. Take `CC(C)(CNc1ccc(-c2ccc3c(N)n[nH]c3c2)nn1)c1ccc(F)cn1` [[6-(3-amino(1H-indazol-6-yl))pyridazin-3-yl][2-(5-fluoro(2-pyridyl))-2-methylpropyl]amine]: the “Mean AC1.4” value is “C (C=10-20 uM)”.

The experiment is the same for the next values; noted with them: median AC1.4 class, procedure of Example 39.
In the case of `O=C1CC[C@H](C(=O)NCc2cnc(-c3ccc(NCC4(c5ncccc5F)CCC4)nn3)s2)CN1` [((3S)-6-oxo(3-piperidyl))-N-({2-[6-({[(3-fluoro(2-pyridyl))cyclobutyl]methyl}ami-no)pyridazin-3-yl](1,3-thiazol-5-yl)}methyl)carboxamide], the “Mean AC1.4” value was “A (A=<1 uM)”. On the same count and under the same terms, the entry for `CC(C)(Nc1ccc(-c2ncc(C(N)=O)s2)nn1)c1ncccc1Cl` [2-(6-{[1-(3-chloro(2-pyridyl))-isopropyl]amino}pyridazin-3-yl)-1,3-thiazole-5-carboxamide] is “B (B=1-10 uM)”. As for `COC(=O)NCc1cnc(-c2ccc(NCC3(c4ncccc4F)CCC3)nn2)s1` [N-({2-[6-({[(3-fluoro(2-pyridyl))cyclobutyl]methyl}ami-no)pyridazin-3-yl](1,3-thiazol-5-yl)}methyl)methoxycarboxamide], the “Mean AC1.4” value is given as “B (B=1-10 uM)”. As to `NC(=O)c1cc(-c2ccc(NC3(c4ccc(F)cc4)CCC3)nn2)ccn1`, the “Mean AC1.4” value was “B (B=1-10 uM)”. Consider `NS(=O)(=O)Nc1ccc(F)c(-c2ccc(NC3(c4ncccc4F)CCC3)nn2)c1`, for which the “Mean AC1.4” value was “B (B=1-10 uM)”. Turning to `Fc1cccnc1C1(CNc2ccc(-c3ccc(N4CCOCC4)cc3)nn2)CCC1` [{[(3-fluoro(2-pyridyl))cyclobutyl]methyl}[6-(4-morpholin-4-ylphenyl)pyridazin-3-yl]amine], the “Mean AC1.4” value is given as “D (D=>20 uM)”. The same measure, in the same setting: the entry for `Fc1cc2[nH]ncc2cc1-c1ccc(NC2(c3ncccc3F)CCC2)nn1` [[6-(6-fluoro(1H-indazol-5-yl))pyridazin-3-yl][(3-fluoro(2-pyridyl))cyclobutyl]amine] is “B (B=1-10 uM)”; for `CCc1ccc(NCC2(c3ncccc3F)CCC2)nn1` [(6-ethylpyridazin-3-yl){[(3-fluoro(2-pyridyl))cyclobutyl]meth-yl}amine] it is “D (D=>20 uM)”; for `NC(=O)c1ccc(Cl)c(-c2ccc(NC3(c4ncccc4F)CCC3)nn2)c1` it is “B (B=1-10 uM)”. As to `CC(C)(CNc1ccc(-c2cc(C#N)ccc2F)nn1)c1ncccc1Cl` [3-(6-{[2-(3-chloro(2-pyridyl))-2-methylpropyl]amino}pyridazin-3-yl)-4-fluorobenzenecarbonitrile], the “Mean AC1.4” value is “B (B=1-10 uM)”.

Staying with this experiment, now noted: median AC1.4 reported as class; procedure of Example 39.
For the compound `Nc1ncc(-c2ccc(NC[C@]3(c4ncccc4F)C[C@H](F)C3)nn2)cc1C(F)(F)F` [{6-[6-amino-5-(trifluoromethyl)(3-pyridyl)]pyridazin-3-yl}{[3-fluoro-1-(3-fluoro(2-pyridyl))cyclobutyl]methyl}amine], the “Mean AC1.4” value was “B (B=1-10 uM)”. Turning to `O=C(O)Cc1cnc(-c2ccc(NCC3(c4ncccc4F)CCC3)nn2)s1` [2-{2-[6-({[(3-fluoro-2-pyridyl)cyclobutyl]methyl}ami-no)pyridazin-3-yl]-1,3-thiazol-5-yl}acetic acid], the “Mean AC1.4” value was “B (B=1-10 uM)”. Still for that read-out and setting: the entry for `CCNC(=O)c1cc(-c2ccc(NC[C@]3(c4ncccc4F)C[C@H](F)C3)nn2)ccc1F` [N-ethyl{2-fluoro-5-[6-({[3-fluoro-1-(3-fluoro(2-pyridyl))cyclobutyl]methyl}ami-no)pyridazin-3-yl]phenyl}carboxamide] is “C (C=10-20 uM)”; for `N#Cc1cccc(-c2ccc(NC[C@]3(c4ncccc4F)C[C@H](F)C3)nn2)c1O` [3-[6-({[3-fluoro-1-(3-fluoro(2-pyridyl))cyclobutyl]methyl}ami-no)pyridazin-3-yl]-2-hydroxybenzenecarbonitrile] it is “B (B=1-10 uM)”; for `CC(C)(Nc1ccc(-c2ncc(CC(N)=O)s2)nn1)c1ncccc1Cl` [2-[2-(6-{[1-(3-chloro(2-pyridyl))-isopropyl]amino}pyridazin-3-yl)-1,3-thiazol-5-yl]acetamide] it is “D (D=>20 uM)”. On to `O=C(Nc1nnc[nH]1)c1ccc(NCC2(c3ncccc3F)CCC2)nn1` [N-(1H-1,2,4-triazol-5-yl)[6-({[(3-fluoro(2-pyridyl))cyclobutyl]methyl}ami-no)pyridazin-3-yl]carboxamide], for which the “Mean AC1.4” value is listed as “D (D=>20 uM)”.

For the compound `O=S1(=O)CCN(Cc2cnc(-c3ccc(NCC4(c5ncccc5F)CCC4)nn3)s2)CC1` [4-({2-[6-({[(3-fluoro-2-pyridyl)cyclobutyl]methyl}ami-no)pyridazin-3-yl]-1,3-thiazol-5-yl}methyl)-1,4-thiazaperhydroine-1,1-dione], the “Mean AC1.4” value is given as “D (D=>20 uM)”.
